Results: ChEMBL document CHEMBL1201862, “PubChem BioAssay data set” (2004)
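1) Cells in 96-well plates. 2) Compound, 48 h, 5 concentrations. 3) Linear interpolation between surrounding doses. 4) Unreached endpoint = highest concentration. GI50: concentration for 50% inhibition of growth.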 The source made the active and inactive calls. No stated cut-off is given here; in the data, active = GI50 up to about 1.1 µM and inactive = higher.

Assays:
Experiment in all cases: growth of human tumour cells (NCI), 48 h
[1] = test system: SK-MEL-2
[2] = test system: K562
[3] = test system: A498
[4] = test system: UACC-62
[5] = test system: OVCAR-8
[6] = test system: NCI-H522
[7] = test system: HL-60
[8] = test system: M14
[9] = test system: SF-268
[10] = test system: CAKI-1
[11] = test system: HOP-92
[12] = test system: HOP-62
[13] = test system: HT-29
[14] = test system: OVCAR-3
[15] = test system: SW-620
[16] = test system: IGROV-1

Measured: GI50

CC(=O)Nc1ccccc1Sc1ccccc1
inactive: [1] > 100 µM | [2] > 100 µM | [3] > 100 µM | [4] > 100 µM | [5] > 100 µM | [6] 36.6 µM | [7] > 100 µM | [8] > 100 µM | [9] 72.9 µM | [10] 69.8 µM | [11] 69.8 µM | [12] > 100 µM | [13] > 100 µM | [14] 2.6 µM | [15] > 100 µM | [16] > 100 µM

CC1SC2=NC3=C(c4ccccc4C3=O)C(c3ccc(Br)cc3)N2C1=O (configuration not stated)
inactive: [1] 48.1 µM | [2] 44.6 µM | [3] > 100 µM | [4] 30.6 µM | [5] 47.3 µM | [6] 19.3 µM | [7] 22.4 µM | [8] 96.4 µM | [9] 37.9 µM | [10] 80.9 µM | [11] 29 µM | [12] > 100 µM | [13] > 100 µM | [14] 37.2 µM | [15] 51.9 µM | [16] > 100 µM

CCc1cccc(C)c1NC(=O)C(=O)Cc1nc2ccccc2o1
inactive: [1] > 100 µM | [2] > 100 µM | [3] > 100 µM | [4] > 100 µM | [5] > 100 µM | [6] > 100 µM | [7] > 100 µM | [8] > 100 µM | [9] > 100 µM | [10] > 100 µM | [11] > 100 µM | [12] > 100 µM | [13] > 100 µM | [14] > 100 µM | [15] > 100 µM | [16] > 100 µM

O=C1O[C@@H](c2ccccc2)C[C@H]1CN1CCOCC1
inactive: [1] > 100 µM | [2] 40.7 µM | [3] > 100 µM | [4] > 100 µM | [5] > 100 µM | [6] > 100 µM | [7] 24.6 µM | [8] > 100 µM | [9] > 100 µM | [10] 20.4 µM | [11] > 100 µM | [12] > 100 µM | [13] > 100 µM | [14] > 100 µM | [15] > 100 µM | [16] > 100 µM

CC(C)C(=O)Nc1nc2c(ncn2C2OC(CO)C(O)C2O)c(=O)[nH]1 (configuration not stated)
inactive: [1] > 100 µM | [2] > 100 µM | [3] > 100 µM | [4] > 100 µM | [5] > 100 µM | [6] > 100 µM | [7] > 100 µM | [8] > 100 µM | [9] > 100 µM | [10] > 100 µM | [11] > 100 µM | [12] > 100 µM | [13] > 100 µM | [14] > 100 µM | [15] > 100 µM | [16] > 100 µM

CSc1nc(-c2ccccc2)c2c(n1)-c1ccccc1CC2
inactive: [1] > 100 µM | [2] > 100 µM | [3] > 100 µM | [4] > 100 µM | [5] > 100 µM | [6] > 100 µM | [7] > 100 µM | [8] > 100 µM | [9] > 100 µM | [10] > 100 µM | [11] > 100 µM | [12] > 100 µM | [13] 52 µM | [14] > 100 µM | [15] > 100 µM | [16] > 100 µM

CN(C)c1ccc2nc3c(ccc4ccccc43)[o+]c2c1
inactive: [1] 19.6 µM | [2] 2.74 µM | [3] 17.8 µM | [4] 11.5 µM | [5] 12.4 µM | [6] 2.52 µM | [7] 1.95 µM | [8] 11 µM | [9] 15.8 µM | [10] 15.5 µM | [11] 18.3 µM | [12] 19 µM | [13] 15.3 µM | [14] 3.89 µM | [15] 3.2 µM | [16] 12.3 µM

COc1ccc2c(c1)CCc1c(-c3n[nH]c4c3CCc3cc(OC)ccc3-4)n[nH]c1-2
inactive: [1] 43.9 µM | [2] 8.89 µM | [3] 27.6 µM | [4] 23.5 µM | [5] 37.8 µM | [6] 20.2 µM | [7] 27.5 µM | [8] 25.9 µM | [9] 37.1 µM | [10] 24.4 µM | [11] 30.8 µM | [12] 24 µM | [13] 33.2 µM | [15] 17.9 µM | [16] 48.6 µM

O=[N+]([O-])c1nccn1CC(O)c1ccc(F)cc1 (configuration not stated)
inactive: [1] > 100 µM | [2] > 100 µM | [3] > 100 µM | [4] > 100 µM | [5] > 100 µM | [6] > 100 µM | [7] > 100 µM | [8] > 100 µM | [9] > 100 µM | [10] > 100 µM | [11] > 100 µM | [12] > 100 µM | [13] > 100 µM | [14] > 100 µM | [15] > 100 µM | [16] > 100 µM

O=C(Sc1sc(=S)sc1SC(=O)c1ccccc1)c1ccccc1
inactive: [1] 41.4 µM | [2] > 100 µM | [3] 31.5 µM | [4] 21.9 µM | [5] 83.4 µM | [6] > 100 µM | [7] > 100 µM | [8] 68.9 µM | [9] 62.1 µM | [10] > 100 µM | [11] 50.6 µM | [12] 25.4 µM | [13] 36.6 µM | [14] > 100 µM | [15] > 100 µM | [16] 43.2 µM

C#CCC(N)(CO)C(=O)O (configuration not stated)
inactive: [1] > 100 µM | [2] > 100 µM | [3] > 100 µM | [4] > 100 µM | [5] > 100 µM | [6] > 100 µM | [7] > 100 µM | [8] > 100 µM | [9] > 100 µM | [10] > 100 µM | [11] > 100 µM | [12] > 100 µM | [13] > 100 µM | [14] > 100 µM | [15] > 100 µM | [16] > 100 µM

COCC(OC)C(CC=C(C#N)C#N)OC (configuration not stated)
inactive: [1] > 100 µM | [2] > 100 µM | [3] > 100 µM | [4] > 100 µM | [5] > 100 µM | [6] > 100 µM | [7] > 100 µM | [8] > 100 µM | [9] > 100 µM | [10] > 100 µM | [11] > 100 µM | [12] > 100 µM | [13] > 100 µM | [14] > 100 µM | [15] > 100 µM | [16] > 100 µM

CCN(CC)CCNc1ccc2nnn3c4ccc(OC)cc4c(=O)c1c23
inactive: [1] 14.2 µM | [2] 3.78 µM | [3] 13.3 µM | [4] 12.9 µM | [5] 4.31 µM | [6] 6.7 µM | [7] 3.94 µM | [8] 10.5 µM | [9] 7.33 µM | [10] 12.2 µM | [11] 6.07 µM | [12] 11.1 µM | [13] 3.74 µM | [14] 13.5 µM | [15] 3.58 µM | [16] 7.55 µM
